From US12509460B2 (Skyhawk Therapeutics, Inc., priority 2019, dated 2025)
Like-named read-outs stand apart in the source and are kept apart here.

Tests used:
[1] = Quantitative splicing assay (HTT), qPCR; type: cell-based, human; details: Homo sapiens, GM04724, 24 h, GM04724 lymphoblasts, read-out: HTT Splicing: E49-50 EC50
Method in brief: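 Patient lymphoblasts (50,000 cells/well) dosed immediately after plating for 24 h at 2.5 uM to 0.15 nM in 0.1% DMSO. Lysed, cDNA made directly from cells, and inclusion of the intron 49 cryptic exon quantified by TaqMan qPCR.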

[2] = tested on: mHTT protein in GM04724 (CAG 70/20) Huntington's disease patient lymphoblast cells; test: mHTT protein assay, 2B7-MW1 assay via Mesoscale Discovery (MSD); type: cell-based, human
Method in brief: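 Patient lymphoblasts treated 48 h with compound from 10 μM to 0.6 nM. mHTT quantified by MSD 2B7-MW1 immunoassay, whose signal depends on polyQ expansion and HTT size. Viability measured on a replicate plate by CellTiter Glo.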

[3] = tested on: SMN FL and SMN Δ7 in spinal muscular atrophy (SMA) patient fibroblasts (GM03813, Coriell); test: Quantitative splicing assay (SMN), qPCR; type: cell-based, human; details: Homo sapiens, Fibroblast, 24 h, read-out: SMN2 Splicing FL EC50
Protocol: Spinal muscular atrophy (SMA) patient fibroblasts (GM03813, Coriell) are plated in 96-well plates at 50,000 cells/well. […] Treated cells are lysed and cDNA synthesized using the Fast Advanced Cells-to-Ct kit (Thermofisher A35378) according to the manufacturer's instructions. 2 μL of each cDNA are used in qPCR reactions. […] Reactions are run in a Quant Studio 6 qPCR instrument with default settings.

[4] = tested on: SMN protein in spinal muscular atrophy (SMA) patient fibroblasts (GM03813, Coriell); test: SMN protein assay, Mesoscale Discovery (MSD); type: cell-based, human; details: read-out: SMN2 protein EC50
Method in brief: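 SMA patient fibroblasts (GM03813) seeded at 7000 cells/well and exposed to compound at 2.5 μM to 0.6 nM for 48 hours. Lysates assayed for SMN by MSD immunoassay, with absolute SMN amount calculated from a per-plate SMN standard curve (1 μg/ml to 19.5 pg/ml).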

MDR1 (P-gp) = test: Blood-brain-barrier (BBB) penetration potential via MDCK-MDR1 permeability assay; details: dog; for Papp A→B at 120 min, 5 μM: MDCK-MDR1, pH 7.4, MDCK-MDR1: Papp A-B; for Papp B→A at 120 min, 5 μM: MDCK-MDR1, pH 7.4, MDCK-MDR1: Papp B-A
[5] = tested on: MDR1-MDCK cell monolayers; test: as above
MDR1 = test: as above; details: dog, MDCK-MDR1, pH 7.4, MDCK-MDR1: Efflux
[6] = GM04724 Huntington's disease patient lymphoblasts
[7] = SMA patient fibroblasts GM03813, 24 h, qPCR
[8] = SMA patient fibroblasts GM03813, 48 hours, MSD
[9] = GM04724 (CAG 70/20) Huntington's disease patient lymphoblasts
[10] = SMA patient fibroblasts (GM03813)
[11] = SMA patient fibroblasts (GM03813), 48 hours

SMILES | EC50 ([1]; qPCR) | EC50 [2, 6] | EC50 [3, 7] | EC50 [4, 8] | Papp A→B at 120 min, 5 μM (MDR1 (P-gp); A-B direction) | Papp B→A at 120 min, 5 μM (MDR1 (P-gp); B-A direction) | MDCK-MDR1: % Recov A-B ([5]; A-B direction) | MDCK-MDR1: % Recov B-A ([5]; B-A direction) | efflux ratio at 120 min, 5 μM (MDR1; efflux ratio) | EC50 [1] | EC50 [2, 9] | EC50 [3, 10] | EC50 [4, 11] | Papp A→B at 120 min, 5 μM (MDR1 (P-gp); A-B) | Papp B→A at 120 min, 5 μM (MDR1 (P-gp); B-A) | MDCK-MDR1: % Recov A-B ([5]; A-B) | MDCK-MDR1: % Recov B-A ([5]; B-A) | efflux ratio at 120 min, 5 μM (MDR1)
C#Cc1ccc(-c2ccc(N(C)[C@H]3C[C@@H]4CC[C@@H](N4)[C@H]3F)nn2)c(O)c1 [Compound 10B, 5-ethynyl-2-(6-(((1R,2R,3S,5S)-2-fluoro-8-azabicyclo[3.2.1]octan-3-yl)(methyl)amino)pyridazin-3-yl)phenol] | 51 to 100 nM | 51 to 100 nM | 51 to 100 nM | 0.01 to 15 nM | 11.2 ×10⁻⁶ cm/s | 21.2 ×10⁻⁶ cm/s | 52% | 82% | 2 | – | – | – | – | – | – | – | – | –
CN(c1ccc(-c2cc3c(=O)n(C)cnc3cc2O)nn1)[C@H]1C[C@@H]2CC[C@@H](N2)[C@H]1F [Compound 85B, 6-(6-(((1R,2R,3S,5S)-2-fluoro-8-azabicyclo[3.2.1]octan-3-yl)(methyl)amino)pyridazin-3-yl)-7-hydroxy-3-methylquinazolin-4(3H)-one] | 0.01 to 15 nM | 0.01 to 15 nM | 0.01 to 15 nM | 0.01 to 15 nM | 0.71 ×10⁻⁶ cm/s | 48.5 ×10⁻⁶ cm/s | 98% | 103% | 68 | – | – | – | – | – | – | – | – | –
Cc1cnc(-c2ccc(-c3ccc(N(C)[C@@H]4C[C@H]5CCC[C@H](N5)[C@@H]4F)nn3)c(O)c2)o1 [Compound 16A, 2-(6-(((1S,2S,3R,5R)-2-fluoro-9-azabicyclo[3.3.1]nonan-3-yl)(methyl)amino)pyridazin-3-yl)-5-(5-methyloxazol-2-yl)phenol] | 16 to 50 nM | 16 to 50 nM | 101 to 500 nM | 101 to 500 nM | 2.31 ×10⁻⁶ cm/s | 15.2 ×10⁻⁶ cm/s | 31% | 41% | 7 | – | – | – | – | – | – | – | – | –
CN(c1ccc(-c2cc3c(=O)n(C)ccc3cc2O)nn1)[C@@H]1C[C@H]2CC[C@@H]([C@@H]1F)N2C [Compound 98A, 7-(6-(((1S,2S,3R,5R)-2-fluoro-8-methyl-8-azabicyclo[3.2.1]octan-3-yl)(methyl)amino)pyridazin-3-yl)-6-hydroxy-2-methylisoquinolin-1(2H)-one] | – | – | – | – | – | – | – | – | – | 101 to 500 nM | 101 to 500 nM | 101 to 500 nM | 16 to 50 nM | 4.11 ×10⁻⁶ cm/s | 64.7 ×10⁻⁶ cm/s | 86% | 105% | 16
CN(c1ccc(-c2cc3ncccc3cc2O)nn1)[C@H]1C[C@@H]2CCC[C@@H](N2)[C@H]1F [Compound 78B, 7-(6-(((1R,2R,3S,5S)-2-fluoro-9-azabicyclo[3.3.1]nonan-3-yl)(methyl)amino)pyridazin-3-yl)quinolin-6-ol] | 0.01 to 15 nM | 0.01 to 15 nM | 0.01 to 15 nM | 0.01 to 15 nM | 4.03 ×10⁻⁶ cm/s | 50.3 ×10⁻⁶ cm/s | 73% | 79% | 12 | – | – | – | – | – | – | – | – | –
CN(c1ccc(-c2cc3ccncc3cc2O)nn1)[C@H]1C[C@@H]2CC[C@@H](N2)[C@H]1F (single isomer, unassigned) [Compound 87B] | 0.01 to 15 nM | 0.01 to 15 nM | 0.01 to 15 nM | 0.01 to 15 nM | 3.3 ×10⁻⁶ cm/s | 28.7 ×10⁻⁶ cm/s | 70% | 88% | 9 | – | – | – | – | – | – | – | – | –
CN(c1ccc(-c2cc3cnccc3cc2O)nn1)[C@H]1C[C@@H]2CCC[C@@H](N2)[C@H]1F [Compound 121B, 7-(6-(((1R,2R,3S,5S)-2-fluoro-9-azabicyclo[3.3.1]nonan-3-yl)(methyl)amino)pyridazin-3-yl)isoquinolin-6-ol] | – | – | – | – | – | – | – | – | – | 0.01 to 15 nM | 0.01 to 15 nM | 0.01 to 15 nM | 0.01 to 15 nM | 4.47 ×10⁻⁶ cm/s | 39.5 ×10⁻⁶ cm/s | 83% | 111% | 9
